# How the values were obtained:
# Type in all cases: functional
# IGROV-1 = test: Growth inhibition of human IGROV1 cells assessed as cell growth at 0.01 uM incubated for 48 hrs by sulforhodamine B assay relative to control; conditions: IGROV-1, 48 h, read-out: Activity
# NCI-H23 [1] = test: Growth inhibition of human NCI-H23 cells assessed as cell growth at 10 uM incubated for 48 hrs by sulforhodamine B assay relative to control; conditions: NCI-H23, 48 h, read-out: Activity
# HOP-62 = test: Growth inhibition of human HOP62 cells assessed as cell growth at 0.01 uM incubated for 48 hrs by sulforhodamine B assay relative to control; conditions: HOP-62, 48 h, read-out: Activity
# NCI/ADR-RES = test: Growth inhibition of human NCI/ADR-RES cells assessed as cell growth at 0.1 uM incubated for 48 hrs by sulforhodamine B assay relative to control; conditions: read-out: Activity
# Hs-578T [2] = test: Growth inhibition of human Hs 578T cells assessed as cell growth at 1 uM incubated for 48 hrs by sulforhodamine B assay relative to control; conditions: read-out: Activity
# DU-145 [3] = test: Growth inhibition of human DU145 cells assessed as cell growth at 100 uM incubated for 48 hrs by sulforhodamine B assay relative to control; conditions: DU-145, 48 h, read-out: Activity
# HCT-116 = test: Growth inhibition of human HCT116 cells assessed as cell growth at 10 uM incubated for 48 hrs by sulforhodamine B assay relative to control; conditions: HCT-116, 48 h, read-out: Activity
# SNB-19 = test: Growth inhibition of human SNB19 cells assessed as cell growth at 0.01 uM incubated for 48 hrs by sulforhodamine B assay relative to control; conditions: SNB-19, 48 h, read-out: Activity
# NCI-H522 = test: Growth inhibition of human NCI-H522 cells assessed as cell growth at 0.1 uM incubated for 48 hrs by sulforhodamine B assay relative to control; conditions: NCI-H522, 48 h, read-out: Activity
# HT-29 = test: Growth inhibition of human HT-29 cells assessed as cell growth at 0.1 uM incubated for 48 hrs by sulforhodamine B assay relative to control; conditions: HT-29, 48 h, read-out: Activity
# Hs-578T [4] = test: Growth inhibition of human Hs 578T cells assessed as cell growth at 0.01 uM incubated for 48 hrs by sulforhodamine B assay relative to control; conditions: read-out: Activity
# SF-295 [5] = test: Growth inhibition of human SF295 cells assessed as cell growth at 1 uM incubated for 48 hrs by sulforhodamine B assay relative to control; conditions: SF-295, 48 h, read-out: Activity
# MDA-MB-231 = test: Growth inhibition of human MDA-MB-231 cells assessed as cell growth at 0.01 uM incubated for 48 hrs by sulforhodamine B assay relative to control; conditions: MDA-MB-231, 48 h, read-out: Activity
# NCI-H226 = test: Growth inhibition of human NCI-H226 cells assessed as cell growth at 0.1 uM incubated for 48 hrs by sulforhodamine B assay relative to control; conditions: NCI-H226, 48 h, read-out: Activity
# SK-MEL-28 [6] = test: Growth inhibition of human SK-MEL-28 cells assessed as cell growth at 0.01 uM incubated for 48 hrs by sulforhodamine B assay relative to control; conditions: SK-MEL-28, 48 h, read-out: Activity
# T47D = test: Growth inhibition of human T47D cells assessed as cell growth at 0.1 uM incubated for 48 hrs by sulforhodamine B assay relative to control; conditions: read-out: Activity
# NCI-H322M = test: Growth inhibition of human NCI-H322M cells assessed as cell growth at 10 uM incubated for 48 hrs by sulforhodamine B assay relative to control; conditions: read-out: Activity
# SK-MEL-2 [7] = test: Growth inhibition of human SK-MEL-2 cells assessed as cell growth at 1 uM incubated for 48 hrs by sulforhodamine B assay relative to control; conditions: SK-MEL-2, 48 h, read-out: Activity
# LOX IMVI = test: Growth inhibition of human LOXIMVI cells assessed as cell growth at 0.1 uM incubated for 48 hrs by sulforhodamine B assay relative to control; conditions: read-out: Activity
# K562 = test: Growth inhibition of human K562 cells assessed as cell growth at 0.01 uM incubated for 48 hrs by sulforhodamine B assay relative to control; conditions: K562, 48 h, read-out: Activity
# SF-295 [8] = test: Growth inhibition of human SF295 cells assessed as cell growth at 0.1 uM incubated for 48 hrs by sulforhodamine B assay relative to control; conditions: SF-295, 48 h, read-out: Activity
# NCI-H23 [9] = test: Growth inhibition of human NCI-H23 cells assessed as cell growth at 3 uM incubated for 48 hrs by sulforhodamine B assay relative to control; conditions: NCI-H23, 48 h, read-out: Activity
# DU-145 [10] = test: Growth inhibition of human DU145 cells assessed as cell growth at 3 uM incubated for 48 hrs by sulforhodamine B assay relative to control; conditions: DU-145, 48 h, read-out: Activity
# TK-10 = test: Growth inhibition of human TK10 cells assessed as cell growth at 0.03 uM incubated for 48 hrs by sulforhodamine B assay relative to control; conditions: TK-10, 48 h, read-out: Activity
# NCI-H460 = test: Growth inhibition of human NCI-H460 cells assessed as cell growth at 0.3 uM incubated for 48 hrs by sulforhodamine B assay relative to control; conditions: NCI-H460, 48 h, read-out: Activity
# RXF 393 = test: Growth inhibition of human RXF393 cells assessed as cell growth at 0.3 uM incubated for 48 hrs by sulforhodamine B assay relative to control; conditions: RXF 393, 48 h, read-out: Activity
# Malme-3M [11] = test: Growth inhibition of human MALME-3M cells assessed as cell growth at 30 uM incubated for 48 hrs by sulforhodamine B assay relative to control; conditions: read-out: Activity
# SK-MEL-28 [12] = test: Growth inhibition of human SK-MEL-28 cells assessed as cell growth at 0.003 uM incubated for 48 hrs by sulforhodamine B assay relative to control; conditions: SK-MEL-28, 48 h, read-out: Activity
# SK-MEL-2 [13] = test: Growth inhibition of human SK-MEL-2 cells assessed as cell growth at 0.03 uM incubated for 48 hrs by sulforhodamine B assay relative to control; conditions: SK-MEL-2, 48 h, read-out: Activity
# Malme-3M [14] = test: Growth inhibition of human MALME-3M cells assessed as cell growth at 0.003 uM incubated for 48 hrs by sulforhodamine B assay relative to control; conditions: read-out: Activity
# HL-60(TB) = test: Growth inhibition of human HL-60(TB) cells assessed as cell growth at 3 uM incubated for 48 hrs by sulforhodamine B assay relative to control; conditions: HL-60, 48 h, read-out: Activity
# OVCAR-5 = test: Growth inhibition of human OVCAR5 cells assessed as cell growth at 0.3 uM incubated for 48 hrs by sulforhodamine B assay relative to control; conditions: OVCAR-5, 48 h, read-out: Activity
# OVCAR-3 = test: Growth inhibition of human OVCAR3 cells assessed as cell growth at 30 uM incubated for 48 hrs by sulforhodamine B assay relative to control; conditions: OVCAR-3, 48 h, read-out: Activity
# RPMI-8226 = test: Growth inhibition of human RPMI8226 cells assessed as cell growth at 0.003 uM incubated for 48 hrs by sulforhodamine B assay relative to control; conditions: RPMI-8226, 48 h, read-out: Activity
Compound,growth at 0.01 µM (IGROV-1),growth at 10 µM (NCI-H23 [1]),growth at 0.01 µM (HOP-62),growth at 0.1 µM (NCI/ADR-RES),growth at 1 µM (Hs-578T [2]),growth at 100 µM (DU-145 [3]),growth at 10 µM (HCT-116),growth at 0.01 µM (SNB-19),growth at 0.1 µM (NCI-H522),growth at 0.1 µM (HT-29),growth at 0.01 µM (Hs-578T [4]),growth at 1 µM (SF-295 [5]),growth at 0.01 µM (MDA-MB-231),growth at 0.1 µM (NCI-H226),growth at 0.01 µM (SK-MEL-28 [6]),growth at 0.1 µM (T47D),growth at 10 µM (NCI-H322M),growth at 1 µM (SK-MEL-2 [7]),growth at 0.1 µM (LOX IMVI),growth at 0.01 µM (K562),other results
COc1cc2cc(Oc3ccc(NC(=O)Nc4cc(C(F)(F)F)cc(C(F)(F)F)c4)cc3)c(C)nc2cc1OC,96%,-32%,88%,96%,101%,-96%,-84%,95%,77%,97%,98%,31%,101%,101%,91%,95%,-85%,85%,95%,110%,growth at 0.1 µM (SF-295 [8]): 92%
Cc1nc2cc(O)c(O)cc2cc1Oc1ccc(NC(=O)Nc2ccc(Cl)c(Cl)c2)cc1,,,,,,,,,,,,,,,,,,,,,growth at 3 µM (NCI-H23 [9]): 87%; growth at 3 µM (DU-145 [10]): 82%; growth at 0.03 µM (TK-10): 104%; growth at 0.3 µM (NCI-H460): 99%; growth at 0.3 µM (RXF 393): 103%; growth at 30 µM (Malme-3M [11]): -10%; growth at 0.003 µM (SK-MEL-28 [12]): 90%; growth at 0.03 µM (SK-MEL-2 [13]): 113%; growth at 0.003 µM (Malme-3M [14]): 99%; growth at 3 µM (HL-60(TB)): 106%; growth at 0.3 µM (OVCAR-5): 106%; growth at 30 µM (OVCAR-3): -29%; growth at 0.003 µM (RPMI-8226): 93%
COc1cc2cc(Oc3ccc(NC(=O)Nc4ccc(Cl)c(Cl)c4)cc3)c(C)nc2cc1OC,110%,15%,102%,100%,113%,-64%,2%,94%,99%,110%,100%,80%,93%,107%,101%,103%,47%,121%,96%,108%,growth at 0.1 µM (SF-295 [8]): 87%
COc1cc2cc(Oc3ccc(NC(=O)Nc4ccc(Cl)c(C(F)(F)F)c4)cc3)c(C)nc2cc1OC,,,,,,,,,,,,,,,,,,,,,growth at 3 µM (NCI-H23 [9]): 5%; growth at 3 µM (DU-145 [10]): 17%; growth at 0.03 µM (TK-10): 91%; growth at 0.3 µM (NCI-H460): 100%; growth at 0.3 µM (RXF 393): 113%; growth at 30 µM (Malme-3M [11]): -37%; growth at 0.003 µM (SK-MEL-28 [12]): 99%; growth at 0.03 µM (SK-MEL-2 [13]): 97%; growth at 0.003 µM (Malme-3M [14]): 98%; growth at 3 µM (HL-60(TB)): -2%; growth at 0.3 µM (OVCAR-5): 113%; growth at 30 µM (OVCAR-3): -87%; growth at 0.003 µM (RPMI-8226): 100%

# Source: ChEMBL document CHEMBL3994622, “Design and synthesis of new RAF kinase-inhibiting antiproliferative quinoline derivatives. Part 2: Diarylurea derivatives” (Eur J Med Chem, 2017)
